According to patent publication US5665367A, “Skin care compositions containing naringenin and/or quercetin and a retinoid” (Chesebrough-Pond's USA Co., Division of Conopco, Inc., priority 1996, dated 1997):
Like-named read-outs stand apart in the source and are kept apart here.

Key:
[1] = tested on: transglutaminase I (TG1) in human keratinocytes; test: Transglutaminase assay (ELISA based TGase I assay) normalized to DNA in keratinocytes, Examples 2-4; assay type: cell-based; conditions: for inhibition of keratinocyte differentiation compared with retinoic acid: summary of the studies
Procedure: (§1) Human keratinocytes, isolated from neonatal foreskin by trypsin treatment were grown in Dulbecco Modification Eagle (DME) Hams F12 (1:1) medium/10% fetal calf serum in the presence of irradiated 3T3 mouse fibroblasts for establishing dividing keratinocyte colonies. Cells were grown under the above condition until their second passage and kept frozen for future use. Frozen second passage keratinocytes were thawed and plated into the above medium and grown for five days before they were switched to a serum-free MCDB 153-based medium keratinocyte growth medium (KGM) from Clonetics Corporation, San Diego, Calif., containing 0.15 mM Ca, or keratinocyte serum-free media (KSFM) from GIBCO containing 0.09 mM Ca). On day 7, when the cells were 80-90% confluent, they were trypsinized and plated in the serum-free medium for the various experiments.
(§2) During the process of terminal differentiation in the epidermis, a 15 nm thick layer of protein, known as the cornified envelope (CE) is formed on the inner surface of the cell periphery. The CE is composed of numerous distinct proteins which have been cross-linked together by the formation of N^ε -(γ-glutamyl) lysine isodipeptide bonds catalyzed by the action of at least two different transglutaminases (TGases) expressed in the epidermis. TGase 1 is expressed in abundance in the differentiated layers of the epidermis, especially the granular layer, but is absent in the undifferentiated basal epidermis. Thus TGase I is a useful marker of epidermal keratinocyte differentiation with high TGase I levels indicating a more differentiated state. An ELISA based TGase I assay, using a TGase I antibody, was used to assess the state of differentiation of the cultured keratinocytes in the examples that follow.
For Examples 2-4, the following procedure was used:
Keratinocytes (cultured as described above) were plated in 96 well plates at a density of 3,000 cells per well in 200 μl of cell culture media. After incubation for four days, the media was changed to media containing test compounds (six replicates per test). The cells were cultured for a further 72 hours after which time the media was aspirated and the plates stored at -70° C. After the plates were removed from the freezer, the cells were further freezed fractured by freezing and thawing and then washed 3x with PBS. The cells were incubated for one hour at room temperature (R/T) with TBS/5% BSA buffer. Cells were then incubated with 100 μl of monoclonal anti-human transglutaminase (IgG) mouse antibody (primary antibody) obtained from Biomedical Technologies Inc. diluted 1:2000 in TBS/1% BSA buffer for two hours at 37° C., and then rinsed six times with wash buffer (TBS/1% BSA/0.05% Tween-20). Cells were next incubated with 100 μl of Fab fragment, peroxidase conjugated anti-mouse IgG antibody (secondary antibody) from Amersham diluted 1:4,000 in wash buffer for two hours at 37° C. and then rinsed three times with wash buffer and three times with PBS. Cells were incubated with substrate solution (4mg o-phenylene diamine and 3.3 μl 30% H2 O2 in 10mL 0.1M citrate buffer, pH 5.0) for five minutes at R/T and in darkness (under aluminum foil). The reaction was stopped by the addition of 50 μl N H2 SO4. The absorbance of samples was read at 492 nm in the plate reader. Out of the six replicates, four were treated with both antibodies, two were treated only with the secondary antibody (i.e., to determine the background binding of the enzyme conjugated antibody). Transglutaminase I levels were determined by subtracted background from the readings from each treatment and determining the mean s.d. for the replicates exposed to both antibodies.
(§3) The level of TGase-1 detected after treatment of the cells could be influenced by cell number, i.e., the greater the number of cells the greater the level of TGase-1 detected. The level of TGase-1 was normalized to DNA content of the cells in the same well thus eliminating variation due to differences in cell number. […]

[2] = tested on: transglutaminase (TGase I) in human keratinocytes; test: Transglutaminase assay (ELISA based TGase I assay) normalized to DNA in keratinocytes, Example 1; assay type: cell-based; conditions: for decrease in transglutaminase level, dose dependence: 2.5×10^-9 to 2.5×10^-7 M; for activity at 0.25 µM / activity at 0.025 µM / activity at 0.0025 µM: Homo sapiens, Keratinocyte, read-out: mean TGase/DNA (% control); for activity at 0.25 µM / activity at 0.025 µM / activity at 0.0025 µM / mean TGase/DNA × 10^-4 ± s.d: 72 hours, Table 1, n = 3
Procedure: as §1, §2
For Example 1, the following procedure was used:
Keratinocytes (cultured as described above) were plated in 96 well plates at a density of 3,000 cells per well in 200 μl media. After incubation for four days the media was changed to media containing test compounds (six replicates per test). The cells were cultured for a further 72 hours after which time the media was aspirated and the plates stored at -70° C. Plates were removed from the freezer, and the cells washed with PBS. 100 μl sterile water was added and the cells were freeze fractured by freezing at -70° C. then thawing. The cells were incubated for one hour at room temperature (R/T) with PBS/3% BSA (wash buffer, bovine serum albumin), then rinsed with a fresh aliquot of wash buffer. Cells were incubated with 50 μl of primary antibodies monoclonal anti-human transglutaminase mouse antibody (IgG) obtained from Biomedical Industries diluted 1:2,000 in wash buffer for one hour, 37° C. then rinsed two times with wash buffer. Cells were then incubated with 50 μl of secondary antibody (Fab fragment, peroxidase conjugated anti-mouse IgG obtaining from Amersham) diluted 1:4,000 in wash buffer for one hour at 37° C., then rinsed two times with wash buffer. Cells were incubated with substrate solution (4 mg o-phenylene diamine and 3.3 μl 30% H2 O2 in 10 ml 0.1M citrate buffer pH 5.0) for five minutes, R/T, in darkness (under aluminum foil). The reaction was stopped by the addition of 50 μl N H2 SO4. The absorbance of samples was read at 492 nm in the plate reader. Out of the six replicates, four were treated with both antibodies, two were treated only with the secondary antibody (i.e., to determine background binding of enzyme conjugated Ab). TGase levels were determined by subtracting background from the readings from each treatment and determining mean ±s.d. for the replicates exposed to both Ab.
as §3

[3] = 2.5 × 10^-7 M, 72 hour treatment, Table 4 (Example 4), n = 3
[4] = Example 2: 2.5×10^-7 M retinoic acid, 2.5×10^-9 M retinol, 10^-7 M naringenin alone
[5] = Example 4: 2.5×10^-7 M retinoic acid, 2.5×10^-7 M retinol, 10^-6 M quercetin alone
[6] = Homo sapiens, Keratinocyte, 72 h, 2.5 × 10^-7 M, 72 hour treatment, Table 4 (Example 4), n = 3, read-out: mean TGase/DNA (% control)
[7] = Example 3: 2.5×10^-7 M retinoic acid, 2.5×10^-8 M retinyl palmitate, 10^-8 M naringenin alone

Structure (SMILES) | repression of keratinocyte TG1 level (in words) [1, 7] | mean TGase/DNA × 10^-5 ± s.d [1, 3] | repression of keratinocyte TG1 level (in words) [1, 4] | repression of keratinocyte TG1 level (in words) [1, 5] | activity at 0.25 µM [1, 6] | inhibition of keratinocyte differentiation compared with retinoic acid [1] | decrease in transglutaminase level, dose dependence [2] | activity at 0.25 µM ([2]; 2.5 × 10^-7 M) | activity at 0.025 µM ([2]; 2.5 × 10^-8 M) | activity at 0.0025 µM ([2]; 2.5 × 10^-9 M) | other results
CC1=C(/C=C/C(C)=C/C=C/C(C)=C/CO)C(C)(C)CCC1 [Retinol, retinol] | – | 61.93 ± 5.18 × 10^-5 | ineffective | ineffective | 90% | significantly less effective than retinoic acid | dose dependent | 47% | 77% | > 100% | mean TGase/DNA × 10^-5 ± s.d ([1]; 2.5 × 10^-9 M retinol, 72 hour treatment, Table 2 (Example 2), n = 3): 48.31 ± 5.31 × 10^-5; mean TGase/DNA (% control) ([1]; 2.5 × 10^-9 M retinol, 72 hour treatment, Table 2 (Example 2), n = 3, 0.0025 µM, 4320 min): 91%; activity at 0.0025 µM ([1]; Homo sapiens, Keratinocyte, 72 h, 2.5 × 10^-9 M retinol, 72 hour treatment, Table 2 (Example 2), n = 3, read-out: mean TGase/DNA (% control)): 92%
CC1=C(/C=C/C(C)=C/C=C/C(C)=C/C(=O)O)C(C)(C)CCC1 [Retinoic acid, retinoic acid] | very effective | 35.91 ± 3.01 × 10^-5 | very effective | effective | 52% | – | in a dose dependant manner decreased transglutaminase I levels | 7% | 55% | 77% | mean TGase/DNA × 10^-5 ± s.d ([1]; 2.5 × 10^-7 M RA, 72 hour treatment, Table 2 (Example 2), n = 3): 22.47 ± 2.31 × 10^-5; mean TGase/DNA × 10^-5 ± s.d ([1]; 2.5 × 10^-7 M RA, 72 hour treatment, Table 3 (Example 3), n = 3): 16.31 ± 2.58 × 10^-5; activity at 0.25 µM ([1]; Homo sapiens, Keratinocyte, 72 h, 2.5 × 10^-7 M RA, 72 hour treatment, Table 2 (Example 2), n = 3, read-out: mean TGase/DNA (% control)): 42%; activity at 0.25 µM ([1]; Homo sapiens, Keratinocyte, 72 h, 2.5 × 10^-7 M RA, 72 hour treatment, Table 3 (Example 3), n = 3, read-out: mean TGase/DNA (% control)): 32%; mean TGase/DNA × 10^-4 ± s.d ([2]; 2.5 × 10^-7 M): 0.16 ± 0.11 × 10^-4; mean TGase/DNA × 10^-4 ± s.d ([2]; 2.5 × 10^-8 M): 1.34 ± 0.40 × 10^-4; mean TGase/DNA × 10^-4 ± s.d ([2]; 2.5 × 10^-9 M): 1.87 ± 0.49 × 10^-4; decrease in transglutaminase level, dose dependence ([2]; listed as retinoic acid): dose dependent; effect on keratinocyte differentiation ([2]; all concentrations tested, versus ethanol control, Example 1): decreased keratinocyte differentiation; extent of decrease versus corresponding retinol treatments ([2]; all concentrations tested, Example 1): significantly greater extent
O=c1c(O)c(-c2ccc(O)c(O)c2)oc2cc(O)cc(O)c12 [Quercetin, quercetin] | – | – | – | only a small inhibitory effect | – | – | – | – | – | – | mean TGase/DNA × 10^-5 ± s.d ([1]; 10^-6 M quercetin, 72 hour treatment, Table 4 (Example 4), n = 3): 59.04 ± 3.38 × 10^-5; activity at 1 µM ([1]; Homo sapiens, Keratinocyte, 72 h, 10^-6 M quercetin, 72 hour treatment, Table 4 (Example 4), n = 3, read-out: mean TGase/DNA (% control)): 85%

The next lines start with results.

repression of keratinocyte TG1 level (in words) [1, 7] | Structure (SMILES) | mean TGase/DNA × 10^-5 ± s.d [1, 3] | repression of keratinocyte TG1 level (in words) [1, 4] | repression of keratinocyte TG1 level (in words) [1, 5] | activity at 0.25 µM [1, 6] | inhibition of keratinocyte differentiation compared with retinoic acid [1] | decrease in transglutaminase level, dose dependence [2] | activity at 0.25 µM ([2]; 2.5 × 10^-7 M) | activity at 0.025 µM ([2]; 2.5 × 10^-8 M) | activity at 0.0025 µM ([2]; 2.5 × 10^-9 M) | other results
ineffective | CCCCCCCCCCCCCCCC(=O)OC/C=C(C)/C=C/C=C(C)/C=C/C1=C(C)CCCC1(C)C [Retinyl palmitate, retinyl palmitate] | – | – | – | – | significantly less effective than retinoic acid | – | – | – | – | mean TGase/DNA × 10^-5 ± s.d ([1]; 2.5 × 10^-8 M retinyl palmitate, 72 hour treatment, Table 3 (Example 3), n = 3): 47.32 ± 4.22 × 10^-5; activity at 0.025 µM ([1]; Homo sapiens, Keratinocyte, 72 h, 2.5 × 10^-8 M retinyl palmitate, 72 hour treatment, Table 3 (Example 3), n = 3, read-out: mean TGase/DNA (% control)): 93%
small inhibitory effect | O=C1C[C@@H](c2ccc(O)cc2)Oc2cc(O)cc(O)c21 [Naringenin, naringenin] | – | no inhibitory effect | – | – | – | – | – | – | – | mean TGase/DNA × 10^-5 ± s.d ([1]; 10^-7 M naringenin, 72 hour treatment, Table 2 (Example 2), n = 3): 49.84 ± 2.76 × 10^-5; mean TGase/DNA × 10^-5 ± s.d ([1]; 10^-8 M naringenin, 72 hour treatment, Table 3 (Example 3), n = 3): 45.01 ± 1.90 × 10^-5; activity at 0.1 µM ([1]; Homo sapiens, Keratinocyte, 72 h, 10^-7 M naringenin, 72 hour treatment, Table 2 (Example 2), n = 3, read-out: mean TGase/DNA (% control)): 94%; activity at 0.01 µM ([1]; Homo sapiens, Keratinocyte, 72 h, 10^-8 M naringenin, 72 hour treatment, Table 3 (Example 3), n = 3, read-out: mean TGase/DNA (% control)): 89%
